From US20200277571A1, “METHOD FOR AMPLIFYING CONE PHOTORECEPTORS OR ROD PHOTORECEPTORS USING DORSALIZATION SIGNAL TRANSMITTER OR VENTRALIZATION SIGNAL TRANSMITTER” (RIKEN, priority 2017, published 2020)

What was measured:
[1] = system: ALDH1A1 gene; test: Quantitative PCR of ALDH1A1 gene expression in retinal tissue; format: cell-based, human
Experimental: [1] Control group (FIG. 2a, f, k, p); according to the method described in Example 1, culture was performed up to day 70 or day 75 from the start of suspension culture and without addition. [2]+BMP group (FIG. 2b, g, 1, q); 0.15 nM BMP4 was added from day 22 from the start of suspension culture to completion of suspension culture, and cultured up to day 70 or day 75 from the start of suspension culture. [3]+Cyclopamine-KAAD group (FIG. 2c, h, m, r); 500 nM Cyclopamine-KAAD was added from day 22 from the start of suspension culture to completion of the suspension culture, and cultured up to day 70 or day 75 from the start of suspension culture. [4]+LDN193189 group (FIG. 2d, i, n, s); 100 nM LDN193189 was added from day 22 from the start of suspension culture to completion of the suspension culture, and cultured up to day 70 or day 75 from the start of suspension culture. [5]+SAG group (FIG. 2e, j, o, t); 100 nM SAG was added from day 22 from the start of suspension culture to completion of the suspension culture, and cultured up to day 70 or day 75 from the start of suspension culture.
The expression level of ALDH1A1 gene was analyzed by quantitative PCR using the same cDNA as that used in Example 7. As a result, similar to that observed by immunostaining, the expression level of ALDH1A1 gene was promoted in +BMP4 group as compared to the Control (NUC) group on about day 40 from the start of suspension culture (FIG. 8-2, black bar (d40) in graph). […]
After extracting RNA from retinal tissue prepared in this way, cDNA was synthesized and the expression level of ALDH1A1 gene was analyzed by quantitative PCR. […] Furthermore, a retinal tissue prepared using 1.35 nM BMP4 was fixed with 4% para-formaldehyde, cryosections were prepared, and immunostaining using an antibody against GFP (fluorescence of GFP variant incorporated in CRX gene locus can be identified. That is, cells similar to CRX-positive cell can be identified), ALDH1A1, or DAPI staining for staining the nucleus was performed. […]

[2] = system: S-opsin, M-opsin, L-opsin; test: Quantitative PCR of S-opsin, M-opsin, L-opsin after maturation culture in serum-free medium; format: cell-based, human; conditions: BMP4 (0-1.35 nM) added in combination with T3 (0-8 nM) in serum-free DMEM/F12 after about day 190, not less than 30 days
Experimental: By a method similar to the methods described in Example 1 and Example 3, a cell aggregate containing a retinal tissue in a differentiation stage matured to the level that Muller cell was observed was prepared and culture was performed, in the serum-containing medium used, up to about day 190 to give a retinal tissue in a differentiation stage matured to the level that Muller cell was observed. Thereafter, by a method similar to the methods described in Example 11 and 12, further maturation was performed. That is, 0-1.35 nM BMP4 and 0-8 nM T3 were added to a medium obtained by adding 1% N2 supplement and 100 μM taurine but not adding 10% fetal calf serum to DMEM/F12 medium containing glutamic acid as a component, and culture was performed for not less than 30 days from the start of culture for further maturation. A cell aggregate containing a retinal tissue was recovered, quantitatively PCR was performed according to a conventional method, and the expression levels of S-opsin, M-opsin, L-opsin were confirmed. As a result, irrespective of the presence or absence of BMP4, the expression of S-opsin was promoted when T3 was absent.

Substance: BMP4: BMP protein; BMP signal transduction pathway agonist used as dorsalization signal transmitter
- ALDH1A1 gene expression ([1]; 1.35 nM BMP4 from day 22, day 70-75): significantly increased
- expression level of ALDH1A1 gene versus Control (NUC) group ([1]; about day 40, 0.15 nM BMP4 from day 22): promoted
- ALDH1A1 gene expression ([1]; about day 70 (versus about day 40), 0.15 nM BMP4 from day 22): tendency of decrease
- expression of L and M-opsin [2]: promoted
